Tests used:
[1] = tested on: human lung carcinoma A549 cells; experiment: Label-free Epic biosensor DMR assay in A549 cells; format: cell-based; settings: 10 micromolar, ultra-high confluent cells, 2 hrs in low CO2 (~2%) (FIG. 12B)
Procedure: 169. Cells were typically grown using ˜1 to 2×10^4 cells per well at passage 3 to 15 suspended in 50 μl of the corresponding culture medium in the biosensor microplate, and were cultured at 37° C. under air/5% CO2 for ˜1 day. Except for A431 which was subject to ˜20 hr starvation through continuously culture in the serum-free DMEM, the other cell types were directly assayed without starvation. The confluency for all cells at the time of assays was ˜95% to 100%.
177. Epic® wavelength interrogation system (Corning Inc., Corning, N.Y.) was used for whole cell sensing. This system consists of a temperature-control unit, an optical detection unit, and an on-board liquid handling unit with robotics. The detection unit is centered on integrated fiber optics, and enables kinetic measures of cellular responses with a time interval of ˜15 sec. The compound solutions were introduced by using the on-board liquid handling unit (i.e., pippetting).
190. Although we used A431 cells as a model, the disclosed methods are also applicable to other types.
191. To characterize the polypharmacology including PDE4 inhibitory activity of compounds, we used the known EGFR inhibitor tyrphostin 51 as an example. […] Next, one or more specific DMR parameters were chosen as a readout for plotting the DMR index of the molecule.

quiescent A431 cells = experiment: DMR modulation index against panel of markers in quiescent A431 cells; format: cell-based, human
Description: (§1) 191. To characterize the polypharmacology including PDE4 inhibitory activity of compounds, we used the known EGFR inhibitor tyrphostin 51 as an example. Quiescent A431 and proliferating A549 cells were separately exposed to tyrphostin 51 at 10 micromolar for about 1 hr to generate its primary profiles, followed by stimulation with each marker at a fixed concentration for another 1 hr or so to generate secondary profiles of the tyrphostin 51 against the panels of markers in both types of cells. Next, one or more specific DMR parameters were chosen as a readout for plotting the DMR index of the molecule.
192. The first panel of markers was contacted with quiescent A431 cells at concentrations close to each of the marker's EC80 or EC100, and DMR measurements were obtained with and EPIC® system. This panel of markers was selected from a library of markers identified in A431 cells using Epic® cellular assays. This panel included epidermal growth factor (EGF), epinephrine, nicotinic acid, and histamine. Each of these markers leads to a wide array of cell signaling. Using Epic® cellular assays in conjunction with chemical biology and cell biology approach similar to the EGFR DMR mentioned above, we have determined the pathway(s) and network interaction(s) that is accounted for each marker-induced DMR signal in A431 cells. The main observations are summarized below. Epidermal growth factor is a natural agonist for endogenous EGF receptor in A431 whose activation leads to a divergent array of cell signaling, including PLC-PI3K pathway, MAPK pathway, STAT pathway, and PKC pathway. Epinephrine is a natural agonist for endogenous beat2-adrenergic receptor in A431 cells, whose activation leads to cAMP-PKA pathway. Nicotinic acid is a natural agonist for endogenous GPR109A receptor in A431, whose activation leads to Gi-mediated signaling and MAPK pathway. Histamine is a natural agonist for endogenous histamine type 1 receptor (H1R) in A431, whose activation leads to Gq-mediated signaling and PKC pathway. […] Each DMR signal represents an averaged response of 4 replicates.
(§2) 194. For the pinacidil DMR response in A549, the amplitude of the N-DMR (i.e., the amplitude 30 min after stimulation) was chosen. For the poly(I:C) DMR response in A549, the amplitude of the late DMR (i.e., the amplitude 50 min after stimulation) was chosen. For the PMA response in A549, the late DMR amplitude (i.e., the amplitude 50 min after stimulation) was chosen. For the SLIGKV-amide DMR response in A549, the P-DMR amplitude (i.e., the amplitude 20 min after stimulation) was chosen. For the forskolin response in A549 cells, the P-DMR amplitude (i.e., the amplitude 50 min after stimulation) was chosen. For the histamine response in A549, both the early DMR amplitude (i.e., amplitude 10 min after stimulation) and the late response (i.e., the amplitude 30 min after stimulation) were chosen. For the epinephrine response in A431, the P-DMR amplitude (i.e., the amplitude 50 min after stimulation) was chosen. For the nicotinic acid DMR in A431, the P-DMR amplitude (i.e., the amplitude 3 min after stimulation) was chosen. For the EGF DMR in A431, both the P-DMR (i.e., the amplitude 4 min after stimulation) and N-DMR amplitudes (i.e., the decaying amplitude between 4 min and 40 min after simulation) were chosen. For the histamine response in A431, the P-DMR amplitude (i.e., the amplitude 3 min after stimulation) was chosen. The percentage of modulation of the marker against each marker was calculated by normalizing the secondary profile of the molecule against the marker in the cell to the primary profile of the same marker acting on the same cell.

A549 cells = experiment: DMR modulation index against panel of markers in A549 cells; format: cell-based, human
Description: as §1
193. The second panel of markers was contacted with A549 cells at concentrations close to each of the marker's EC80 or EC100, and DMR measurements were obtained with and EPIC® system. This panel included poly(I:C), SLIGKV-amide, pinacidil, PMA, histamine, and forskolin. Each of these markers also leads to a wide array of cell signaling. Using Epic® cellular assays in conjunction with chemical biology and cell biology approach similar to the EGFR DMR mentioned above, we have determined the pathway(s) and network interaction(s) that is accounted for each marker-induced DMR signal in A549 cells. The main observations are summarized below. Poly(I:C) is an agonist for endogenous Toll-like receptor(s) in A549, whose activation leads to IKK pathway and AKT pathway. SLIGKV-amide is an agonist for endogenous protease activated receptor subtype 2 (PAR2) in A549, whose activation leads to Gq-, Gi- and G12/13-mediated signaling. Pinacidil is an opener for endogenous ATP-sensitive potassium (KATP) ion channel in A549, whose activation leads to Rho- and JAK-mediated signaling. PMA is an activator for protein kinase C(PKC), whose activation leads to PKC pathway and degranulation. Histamine is a natural agonist for endogenous histamine receptors (dominantly H1R, and possibly H3R), whose activation leads to dual signaling, possibly through Gq and Gi mediated signaling in A549. Forskolin is an activator for adenylyl cyclases, whose activation leads to cAMP-PKA pathway in A549. […] Each DMR signal represents an averaged response of 4 replicates.
as §2

[2] = quiescent A431, 10 micromolar pretreatment ~1 hr
[3] = 10 micromolar pretreatment ~1 hr

`N#CC(C#N)=C(N)/C(C#N)=C/c1cc(O)c(O)c(O)c1` [tyrphostin 51] was tested, and the “primary DMR profile” value [1] was “closely resembled the classic Gs-DMR signals”, the “effect of pretreatment on EGF induced DMR signal” value (quiescent A431 cells; A431, FIG. 12C) was “attenuation” and the “effect of pretreatment on epinephrine DMR signal” value (quiescent A431 cells; A431, FIG. 12C) was “partially attenuated”. For the same compound, the “effect of pretreatment on histamine DMR signal” value (quiescent A431 cells; A431, FIG. 12C) was “partially attenuated”, the “modulation of EGF N-DMR (decaying amplitude 4 to 40 min)” value (quiescent A431 cells; [2]) was −5% and the “modulation of EGF P-DMR (amplitude 4 min)” value (quiescent A431 cells; [2]) was −36%. The “modulation of epinephrine DMR (P-DMR amplitude 50 min)” value (quiescent A431 cells; [2]) was −68%, the “modulation of histamine DMR (P-DMR amplitude 3 min)” value (quiescent A431 cells; [2]) was −16% and the “modulation of nicotinic acid DMR (P-DMR amplitude 3 min)” value (quiescent A431 cells; [2]) was “+4%”. The “modulation of PMA DMR (late DMR amplitude 50 min)” value (A549 cells; [3]) was −6%, the “modulation of SLIGKV-amide DMR (P-DMR amplitude 20 min)” value (A549 cells; [3]) was 0% and the “modulation of forskolin DMR (P-DMR amplitude 50 min)” value (A549 cells; [3]) was −23%. The “modulation of histamine early response (amplitude 10 min)” value (A549 cells; [3]) was “+6%”, the “modulation of histamine late response (amplitude 30 min)” value (A549 cells; [3]) was 0% and the “modulation of poly(I:C) DMR (late DMR amplitude 50 min)” value (A549 cells; [3]) was “+5%”. The “effect of pretreatment on forskolin DMR signal” value (A549 cells; FIG. 12C) was “partially attenuated” and the “modulation of pinacidil DMR (N-DMR amplitude 30 min)” value (A549 cells; tyrphostin 51 at 10 micromolar pretreatment ~1 hr) was 0%.

Reference: patent US20110020843A1, “LABEL-FREE METHODS RELATED TO PHOSPHODIESTERASES” (priority 2009, published 2011)
